From patent publication US7790899B2, “Synthesis of N-(4-fluorobenzyl)-N-(1-methylpiperidin-4-yl)-N′-(4-(2-methylpropyloxy)phenylmethyl)carbamide and its tartrate salt and crystalline forms” (ACADIA Pharmaceuticals, Inc., priority 2004, dated 2010)

How the values were obtained:
[1] = Approximate solubility of Form A: saturated solutions, gravimetric determination after solvent removal; assay type: physicochemical
Method: Approximate solubility was measured by preparation of saturated solutions in various solvents and gravimetric determination of dissolved substance after solvent removal.

[2] = Stability test, thermal treatment (sealed ampoules, 100° C., HPLC purity); assay type: physicochemical; conditions: 1 week
Method: (§1) HPLC: HPLC measurements were carried out with a HP LC1090M, Column Symmetry C18, 3.0·150 mm.
The compounds of Examples 3(b) (polymorph A), 25 (polymorph B), and 36 (polymorph C) were placed in sealed ampoules and exposed for 1 week to 100° C. […] The products where analyzed by HPLC and the purity was detected to indicate chemical stability via decomposition.

[3] = Water absorption and behaviour on exposure to relative humidity; assay type: physicochemical
[4] = Stability of the crystal forms (general findings); assay type: physicochemical; conditions: ambient temperatures
[5] = Stability test, exposure to humidity (open containers, 60° C., 75% relative humidity); assay type: physicochemical; conditions: 1 week and 2 weeks, listed as polymorph A
Method: as §1
The compounds of Examples 3(b) (polymorph A), 25 (polymorph B), and 36 (polymorph C) were placed in open containers and exposed 1 week and 2 weeks at 60° C. and 75% relative humidity. In polymorph A, a water content of 2.8% was detected and the HPLC purity was 80%.

[6] = Solubility statements in the description
physchem = conditions: aqueous solubility

## CC(C)COc1ccc(CNC(=O)N(Cc2ccc(F)cc2)C2CCN(C)CC2)cc1.CC(C)COc1ccc(CNC(=O)N(Cc2ccc(F)cc2)C2CCN(C)CC2)cc1.O=C(O)C(O)C(O)C(=O)O [Form A, N-(4-fluorobenzyl)-N-(1-methylpiperidin-4-yl)-N′-(4-(2-methylpropyloxy)phenylmethyl)carbamide hemi-tartrate]
[1]; aqueous with cosolvent or surfactant or cyclodextrin, thermodynamic from solid, acetone/water (1:1), read-out: Solubility
  solubility: > 200000 µg/mL
[1]; ethanol
  solubility: >10000 µg/mL
[1]; organic solvent or mixture, thermodynamic from solid, 1,4-dioxane, read-out: Solubility
  solubility: ~2000 µg/mL
[1]; organic solvent or mixture, thermodynamic from solid, 2-propanol, read-out: Solubility
  solubility: ~1000 µg/mL
[1]; organic solvent or mixture, thermodynamic from solid, 2-propanol/water (9:1), read-out: Solubility
  solubility: < 1000 µg/mL
[1]; organic solvent or mixture, thermodynamic from solid, acetone, read-out: Solubility
  solubility: ~2000 µg/mL
[1]; organic solvent or mixture, thermodynamic from solid, acetonitrile, read-out: Solubility
  solubility: ~2000 µg/mL
[1]; organic solvent or mixture, thermodynamic from solid, dichloromethane, read-out: Solubility
  solubility: > 30000 µg/mL
[1]; organic solvent or mixture, thermodynamic from solid, dimethylsulfoxide, read-out: Solubility
  solubility: > 200000 µg/mL
[1]; organic solvent or mixture, thermodynamic from solid, ethyl acetate, read-out: Solubility
  solubility: < 1000 µg/mL
[1]; organic solvent or mixture, thermodynamic from solid, methanol, read-out: Solubility
  solubility: > 100000 µg/mL
[1]; organic solvent or mixture, thermodynamic from solid, methyl ethyl ketone, read-out: Solubility
  solubility: < 1000 µg/mL
[1]; organic solvent or mixture, thermodynamic from solid, t-butyl methyl ether, read-out: Solubility
  solubility: < 1000 µg/mL
[1]; organic solvent or mixture, thermodynamic from solid, toluene, read-out: Solubility
  solubility: < 1000 µg/mL
[1]; tetrahydrofuran
  solubility: >5000 µg/mL
[1]; thermodynamic from solid, water, read-out: Solubility
  solubility: > 300000 µg/mL
[2]
  State of the material after thermal treatment: formed a deliquescent compact material
[2]; listed as polymorph A
  HPLC purity after thermal treatment: 25.9%
[3]; above 75% relative humidity
  Water uptake when exposed to humidity: considerable water uptake
[3]; relative humidities between 20% and 75%
  Stability under ambient water partial pressures: sufficient stability
[4]
  Stability at ambient temperatures: stable
[5]
  HPLC purity after exposure to humidity: 80%
  water content after exposure to humidity: 2.8%
[6]; tetrahydrofuran, reflux temperature
  amount that can be dissolved in tetrahydrofuran: about 200 mg/ml
[6]; water
  Solubility in water or aqueous systems (in words): well soluble

## CC(C)COc1ccc(CNC(=O)N(Cc2ccc(F)cc2)C2CCN(C)CC2)cc1 [Form E, N-(4-fluorobenzyl)-N-(1-methylpiperidin-4-yl)-N′-(4-(2-methylpropyloxy)phenylmethyl)carbamide hemi-tartrate]
physchem
  solubility: > 200000 µg/mL
